Experiments:
Assay in all cases: relative viability (nuclei count vs DMSO), 5 days (fraction); higher = more cells survive
[1] = compound: Cn1cnc2c(F)c(Nc3ccc(Br)cc3Cl)c(C(=O)NOCCO)cc21 [Selumetinib] + Cc1nc(NC(=O)N2CCC[C@H]2C(N)=O)sc1-c1ccnc(C(C)(C)C(F)(F)F)c1 [Alpelisib] (partner 2 µM)
Outline: (§1)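 Relative viability divides the nuclei count in treated wells by that in vehicle wells. Lung cancer cell lines were seeded in 1536-well plates, dosed by pin tool the next day, and fixed and stained after 5 days in one step with final 0.05% Triton X-100, 1% formaldehyde and 1 ug/ml Hoechst. Dosing was a single drug or a fixed anchor-drug dose plus five library-drug doses (not always all listed) in √10 steps, and values are medians of duplicate plates imaged at 4×.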

[2] = compound: Cn1cnc2c(F)c(Nc3ccc(Br)cc3Cl)c(C(=O)NOCCO)cc21 [Selumetinib] + O=C(CCCCCCC(=O)Nc1ccccc1)NO [Vorinostat] (partner 1 µM)
Outline: as §1

[3] = compound: Cn1cnc2c(F)c(Nc3ccc(Br)cc3Cl)c(C(=O)NOCCO)cc21 [Selumetinib] + C[C@]1(O)C[C@@H](c2nc(-c3ccc4ccc(-c5ccccc5)nc4c3)c3c(N)nccn32)C1 [Linsitinib] (partner 1 µM)
Outline: as §1

[4] = compound: Cn1cnc2c(F)c(Nc3ccc(Br)cc3Cl)c(C(=O)NOCCO)cc21 [Selumetinib] + COc1cccc2cc(-c3nc([C@H]4CC[C@H](C(=O)O)CC4)n4ncnc(N)c34)[nH]c12 [OSI-027] (partner 0.5 µM)
Outline: as §1

Row | Cell Line | relative viability ([1]; first compound 0.02 µM) | relative viability ([1]; first compound 0.06325 µM) | relative viability ([1]; first compound 0.2 µM) | relative viability ([1]; first compound 0.6325 µM) | relative viability ([2]; first compound 0.02 µM) | relative viability ([2]; first compound 0.06325 µM) | relative viability ([2]; first compound 0.2 µM) | relative viability ([2]; first compound 0.6325 µM) | relative viability ([3]; first compound 0.02 µM) | relative viability ([3]; first compound 0.06325 µM) | relative viability ([3]; first compound 0.2 µM) | relative viability ([3]; first compound 0.6325 µM) | relative viability ([4]; first compound 0.02 µM) | relative viability ([4]; first compound 0.06325 µM) | relative viability ([4]; first compound 0.2 µM) | relative viability ([4]; first compound 0.6325 µM)
1 | 201T | 0.95 | 0.954 | 0.906 | 0.824 | 0.929 | 0.876 | 0.877 | 0.814 | 0.987 | 0.978 | 0.949 | 0.932 | 0.658 | 0.674 | 0.628 | 0.691
2 | HCC-78 | 0.286 | 0.321 | 0.219 | 0.298 | 0.433 | 0.358 | 0.413 | 0.482 | 0.446 | 0.402 | 0.419 | 0.378 | 0.346 | 0.397 | 0.396 | 0.385
3 | NCI-H650 | 1.33 | 1.08 | 1.19 | 1.09 | 0.552 | 0.778 | 0.72 | 0.805 | 1.18 | 1.03 | 0.941 | 1.07 | 0.66 | 0.806 | 0.825 | 0.826
4 | HARA | 0.701 | 0.647 | 0.549 | 0.353 | 0.428 | – | 0.365 | 0.249 | 0.916 | 0.837 | 0.84 | 0.334 | 0.481 | 0.443 | 0.327 | 0.263
5 | NCI-H661 | 0.653 | 0.598 | 0.501 | 0.606 | 0.882 | 0.772 | 0.75 | 0.799 | 0.614 | 0.455 | 0.469 | 0.457 | 0.804 | 0.582 | 0.571 | 0.57
6 | NCI-H2087 | 0.777 | 0.65 | 0.515 | 0.306 | 0.582 | 0.258 | 0.514 | 0.445 | 0.817 | 0.647 | 0.595 | 0.374 | 0.466 | 0.434 | 0.256 | 0.177
7 | NCI-H2405 | 0.737 | 0.472 | 0.427 | 0.277 | 1.18 | 1.04 | 0.818 | 0.987 | 0.77 | 0.575 | 0.546 | 0.392 | 0.721 | 0.661 | 0.585 | 0.412
8 | NCI-H1944 | 0.71 | 0.677 | 0.594 | 0.52 | 0.562 | 0.448 | 0.441 | 0.491 | 0.979 | 0.928 | 0.762 | 0.687 | 0.4 | 0.391 | 0.337 | 0.335
9 | NCI-H1793 | 0.786 | 0.646 | 0.41 | 0.452 | 0.512 | 0.422 | 0.445 | 0.365 | 0.883 | 0.817 | 0.419 | 0.392 | 0.251 | 0.243 | 0.231 | 0.258
10 | NCI-H647 | 1.14 | 1.09 | 0.932 | 0.809 | 0.697 | 0.38 | 0.727 | 0.712 | 1.28 | 1.06 | 0.827 | 0.803 | 0.717 | 0.512 | 0.614 | 0.478
11 | NCI-H596 | 0.548 | 0.43 | 0.353 | 0.162 | 0.368 | 0.557 | 0.578 | 0.606 | 1.07 | 1.02 | 1.01 | 0.776 | 0.775 | 0.673 | 0.693 | 0.571
12 | EKVX | 0.678 | 0.711 | 0.61 | 0.448 | 0.557 | 0.531 | 0.446 | 0.384 | 0.864 | 0.912 | 0.749 | 0.711 | 0.654 | 0.645 | 0.606 | 0.469
13 | NCI-H358 | 0.645 | 0.472 | 0.39 | 0.305 | 0.422 | 0.335 | 0.265 | 0.248 | 0.472 | 0.512 | 0.424 | 0.365 | 0.435 | 0.359 | 0.312 | 0.279
14 | H3255 | 0.596 | 0.678 | 0.573 | 0.556 | 0.671 | 0.752 | 0.846 | 0.797 | 0.974 | 0.899 | 0.918 | 0.825 | 0.511 | 0.661 | 0.582 | 0.593
15 | NCI-H1651 | 0.779 | 0.899 | 0.975 | 0.828 | 0.554 | 0.552 | 0.564 | 0.572 | 0.973 | 0.962 | 0.815 | 0.902 | 0.815 | 0.585 | 0.627 | 0.693
16 | NCI-H1395 | 0.981 | 1.05 | 0.953 | 1.02 | 0.761 | 0.613 | 0.653 | 0.775 | 1.05 | 0.939 | 0.973 | 1.08 | 0.625 | 0.641 | 0.628 | 0.631
17 | NCI-H23 | 0.628 | 0.589 | 0.438 | 0.358 | 0.649 | 0.561 | 0.557 | 0.668 | 0.585 | 0.53 | 0.43 | 0.369 | 0.605 | 0.561 | 0.526 | 0.443

Row | Cell Line | relative viability ([1]; first compound 0.02 µM) | relative viability ([1]; first compound 0.06325 µM) | relative viability ([1]; first compound 0.2 µM) | relative viability ([1]; first compound 0.6325 µM) | relative viability ([2]; first compound 0.02 µM) | relative viability ([2]; first compound 0.06325 µM) | relative viability ([2]; first compound 0.2 µM) | relative viability ([2]; first compound 0.6325 µM) | relative viability ([3]; first compound 0.02 µM) | relative viability ([3]; first compound 0.06325 µM) | relative viability ([3]; first compound 0.2 µM) | relative viability ([3]; first compound 0.6325 µM) | relative viability ([4]; first compound 0.02 µM) | relative viability ([4]; first compound 0.06325 µM) | relative viability ([4]; first compound 0.2 µM) | relative viability ([4]; first compound 0.6325 µM)
18 | NCI-H1355 | 0.77 | 0.791 | 0.591 | 0.444 | 0.561 | 0.529 | 0.488 | 0.382 | 0.72 | 0.744 | 0.734 | 0.555 | 0.343 | 0.33 | 0.278 | 0.277
19 | NCI-H2085 | 0.884 | 0.742 | 0.796 | 0.873 | 0.76 | 0.757 | 0.739 | 0.718 | 0.863 | 0.82 | 0.737 | 0.763 | 0.71 | 0.499 | 0.35 | 0.428
20 | NCI-H322M | 0.643 | 0.549 | 0.563 | 0.532 | 0.946 | 0.638 | 0.653 | 0.758 | 0.717 | 0.608 | 0.67 | 0.626 | 0.487 | 0.434 | 0.477 | 0.45
21 | NCI-H1915 | 1.02 | 0.936 | 0.692 | 0.49 | 0.598 | 0.492 | 0.504 | 0.377 | 0.768 | 1.02 | 0.926 | 0.539 | 0.603 | 0.425 | 0.33 | 0.301
22 | HCC-827 | 0.961 | 0.786 | 0.863 | 0.791 | 1 | 0.906 | 0.999 | 0.957 | 0.848 | 0.929 | 0.931 | 0.894 | 0.782 | 0.751 | 0.62 | 0.708
23 | LXF-289 | 0.928 | 0.854 | 0.841 | 0.762 | 0.734 | 0.668 | 0.595 | 0.661 | 1 | 0.853 | 0.745 | 0.719 | 0.796 | 0.73 | 0.648 | 0.519
24 | LC-2-ad | 0.862 | 0.82 | 0.66 | 0.848 | 0.653 | 0.723 | 0.665 | 0.67 | 0.824 | 0.801 | 0.653 | 0.9 | 0.828 | 0.662 | 0.631 | 0.726
25 | NCI-H441 | 0.775 | 0.754 | 0.656 | 0.647 | 0.843 | 0.868 | 0.783 | 0.778 | 0.543 | 0.46 | 0.491 | 0.435 | 0.593 | 0.494 | 0.598 | 0.517
26 | HOP-62 | 0.86 | 0.962 | 0.965 | 0.465 | 0.579 | 0.556 | 0.555 | 0.349 | 0.98 | 1.05 | 0.93 | 0.469 | 0.887 | 0.751 | 0.818 | 0.5
27 | NCI-H2009 | 0.99 | 0.713 | 0.519 | 0.486 | 0.675 | 0.717 | 0.65 | 0.377 | 1.07 | 0.842 | 0.562 | 0.489 | 0.52 | 0.491 | 0.395 | 0.261
28 | NCI-H1755 | 0.896 | 0.845 | 0.783 | 0.856 | 0.821 | 0.68 | 0.726 | 0.852 | 0.95 | 0.852 | 0.845 | 0.848 | 0.745 | 0.698 | 0.681 | 0.673
29 | NCI-H520 | 0.992 | 0.762 | 0.86 | 1 | 0.774 | 0.73 | 0.785 | 0.71 | 1.08 | 0.944 | 1.09 | 1.07 | 0.242 | 0.243 | 0.243 | 0.238
30 | LOU-NH91 | 0.648 | 0.6 | 0.577 | 0.586 | 0.889 | 0.88 | 0.843 | 0.874 | 0.773 | 0.846 | 0.783 | 0.727 | 0.701 | 0.68 | 0.646 | 0.615
31 | LU99A | 0.551 | 0.501 | 0.489 | 0.573 | 0.521 | 0.472 | 0.476 | 0.501 | 0.49 | 0.567 | 0.511 | 0.566 | 0.338 | 0.308 | 0.331 | 0.301
32 | PC-14 | 0.92 | 0.835 | 0.925 | 0.848 | 0.835 | 0.667 | 0.688 | 0.504 | 0.935 | 0.87 | 0.912 | 0.9 | 0.752 | 0.716 | 0.73 | 0.538
33 | NCI-H2126 | 0.679 | 0.675 | 0.58 | 0.532 | 0.727 | 0.664 | 0.595 | 0.583 | 0.679 | 0.674 | 0.595 | 0.538 | 0.676 | 0.597 | 0.577 | 0.606
